Data as given in ChEMBL document CHEMBL1136204, “Thymidine and thymidine-5'-O-monophosphate analogues as inhibitors of Mycobacterium tuberculosis thymidylate kinase” (Bioorg Med Chem Lett, 2003).

How the values were obtained:
[1] = target: T1, Thymidylate kinase (Mycobacterium tuberculosis, UniProt P9WKE1); assay: Inhibitory activity against thymidine monophosphate kinase (TMPK) in Mycobacterium tuberculosis
T1 sequence (P9WKE1 whole entry): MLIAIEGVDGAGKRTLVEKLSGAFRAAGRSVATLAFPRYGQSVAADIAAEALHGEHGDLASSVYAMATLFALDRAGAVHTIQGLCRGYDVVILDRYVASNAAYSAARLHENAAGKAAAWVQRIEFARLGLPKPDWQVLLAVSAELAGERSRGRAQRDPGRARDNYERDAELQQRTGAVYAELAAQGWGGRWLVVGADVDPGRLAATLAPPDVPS

[2] = target: T1, Thymidylate kinase; assay: Inhibitory activity against thymidine monophosphate kinase (TMPKmt) in Mycobacterium tuberculosis using HPLC chromatography test

Row | SMILES | Ki [1] | Ki [2]
1 | C[C@@H]1CC[C@H](n2cc(Br)c(=O)[nH]c2=O)O1 | 5 µM | 
2 | Cc1cn([C@@H]2O[C@H](CI)[C@@H](N=[N+]=[N-])[C@H]2O)c(=O)[nH]c1=O | 490 µM | 
3 | Cc1cn([C@@H]2O[C@H](CO)[C@@H](O)[C@@H]2O)c(=O)[nH]c1=O | 238 µM | 
4 | Cc1cn([C@H]2C[C@H](N)[C@@H](CO)O2)c(=O)[nH]c1=O [3-AMINO- 3-DEOXYTHYMIDINE] | 230 µM | 
5 | C[C@H]1O[C@@H](n2cc(F)c(=O)[nH]c2=O)[C@H](O)[C@@H]1O [DOXIFLURIDINE] | 560 µM | 
6 | Cc1cn([C@H]2C[C@H](O)[C@@H](COP(=O)(O)OP(=O)(O)OP(=O)(O)OP(=O)(O)OP(=O)(O)OC[C@H]3O[C@@H](n4cnc5c(N)ncnc54)[C@H](O)[C@@H]3O)O2)c(=O)[nH]c1=O |  | 30 µM
7 | Cc1cn([C@H]2C[C@H](O)[C@@H](CN=[N+]=[N-])O2)c(=O)[nH]c1=O | 7 µM | 
8 | Cc1cn([C@H]2C[C@H](O)[C@@H](CN)O2)c(=O)[nH]c1=O | 12 µM | 
9 | Cc1cn([C@@H]2O[C@H](CO)[C@@H](N=C(N)N)[C@H]2O)c(=O)[nH]c1=O | 140 µM | 
10 | CC(=O)NC[C@H]1O[C@@H](n2cc(C)c(=O)[nH]c2=O)C[C@@H]1O | 90 µM | 
11 | O=c1[nH]c(=O)n([C@H]2C[C@H](O)[C@@H](COP(=O)(O)O)O2)cc1Cc1ccccc1 | 28 µM | 
12 | Cc1cn([C@@H]2O[C@H](C)[C@@H](N)[C@H]2O)c(=O)[nH]c1=O | 1900 µM | 
13 | O=c1[nH]c(=O)n([C@H]2C[C@H](O)[C@@H](CO)O2)cc1C(F)(F)F [TRIFLURIDINE] | 97 µM | 
14 | Cc1cn([C@H]2C[C@H](F)[C@@H](CO)O2)c(=O)[nH]c1=O [ALOVUDINE] | 28 µM | 
15 | O=c1[nH]c(=O)n([C@H]2C[C@H](O)[C@@H](COP(=O)(O)O)O2)cc1-c1cccs1 | 270 µM | 
16 | CCc1cn([C@H]2C[C@H](O)[C@@H](CO)O2)c(=O)[nH]c1=O [EDOXUDINE] | 1140 µM | 
17 | O=c1[nH]c(=O)n([C@@H]2O[C@H](CO)[C@@H](O)[C@H]2O)cc1F [5-FLUOROURIDINE] | 521 µM | 
18 | O=c1[nH]c(=O)n([C@H]2C[C@H](O)[C@@H](COP(=O)(O)O)O2)cc1-c1ccco1 | 140 µM | 
19 | Cc1cn([C@@H]2CO[C@H](COP(=O)(O)O)[C@@H](O)C2)c(=O)[nH]c1=O | 150 µM | 
20 | O=c1[nH]c(=O)n([C@H]2C[C@H](O)[C@@H](COP(=O)(O)O)O2)cc1CO | 110 µM | 
21 | Cc1cn([C@@H]2O[C@H](CO)[C@@H](O)[C@H]2F)c(=O)[nH]c1=O | 122 µM | 
22 | Cc1cn([C@@H]2O[C@H](COP(=O)(O)O)[C@@H](N)[C@H]2O)c(=O)[nH]c1=O | 45 µM | 
23 | Cc1cn([C@@H]2O[C@H](COP(=O)(O)O)[C@@H](O)[C@H]2N)c(=O)[nH]c1=O | 120 µM | 
24 | Cc1cn([C@H]2C[C@H](O)[C@@H](CO)O2)c(=O)[nH]c1=O [DOXRIBTIMINE] | 715 µM | 
